From patent publication US20230382923A1, “FUSED TETRACYCLIC QUINAZOLINE DERIVATIVES AS INHIBITORS OF ERBB2” (EnLiven Therapeutics, Inc., priority 2021, published 2023) come the findings set out here.

The target of experiment [1] is phosphorylated EGFR (pEGFR) (Homo sapiens (Human), UniProt P00533). Nature of the experiment: Detection of phosphorylated EGFR (pEGFR) by AlphaLISA in A431 cells. Type of experiment: cell-based. Particulars: A431 cells (10% FBS), 4 hours incubation, EGF 30 ng/mL for 10 minutes. As for the experimental part: […] were performed to measure phosphorylated EGFR levels using A431 cells (10% FBS). A431 (1.0*10^4cells/40 μl/well) cells were seeded in 384 well. Compounds were dissolved in DMSO, serially diluted in DMSO and then were added, mixed, and incubated for 4 hours at 37° C., […]. Following the 4-hours incubation, cells were stimulated for 10 minutes with EGF (Invitrogen, cat #PHG0311) at a final concentration of 30 ng/mL in the incubator. The media was aspirated and cells were lysed in 10 μL lysis buffer with protease and phosphatase inhibitors (PerkinElmer, cat #ALSU-PEGFR-A50K). The plates were placed on a shaker for 5 minutes and then incubated for 30 min at 4° C. for complete lysis. The lysate was transferred to an Optiplate (Perkin Elmer, cat #6007290).
Acceptor mix (PerkinElmer, cat #ALSU-PEGFR-A50K) was prepared just before use and 5 μL was dispensed to all the wells, followed by a 1.5-2 h incubation at room temperature in dark. The donor mix (PerkinElmer, cat #ALSU-PEGFR-A50K) was prepared under low light conditions prior to use and 5 μl of donor mix was added to all the wells under subdued lighting or green filters. The plates were placed on a shaker for 5 min, sealed, and incubated overnight at room temperature in dark. Plates were read on the Envision (PerkinElmer) using standard AlphaLISA settings.
The percentage of inhibition on EGFR phosphorylation was calculated following equation: % Inhibition=100×(LumHC−LumSample)/(LumHC−LumLC). The low and high controls (LC/HC) are generated from lysate from wells with cells treated with DMSO or […] Staurosporine (BioAustralis, cat #BIA-S1086), […]. IC50 values were calculated by fitting the Curve using XLfit (v5.3.1.3), equation 201: Y=Bottom+(Top−Bottom)/(1+10^((LogIC50−X)*HillSlope)).
(Alpha assays give light when donor and acceptor beads are brought close together.)

In experiment [2] the target is phosphorylated ERBB2 (pERBB2) (Homo sapiens (Human), UniProt P04626). Nature of the experiment: Detection of phosphorylated ERBB2 (pERBB2) by ELISA in BT-474 cells. Type of experiment: cell-based. Particulars: four hours incubation with compound. As for the experimental part: BT-474 cells were seeded into a 96-well at 2.0*10^4cells/100 μl/well. Compounds were dissolved and serially diluted in DMSO. The compounds were then were added, mixed, and incubated for four hours at 37° C., 5% CO2. […] Following the four hour incubation with compounds, cell lysates were prepared. Plates were centrifuged for 5 min at 3000 RPM, and supernatant was removed from each well. Cells were washed 3 times by resuspension in 150 μl PBS, followed by centrifugation and removal of the supernatant, as above. 100 μl of cell lysis buffer (Boston BioProducts, cat #BP-115D) supplied with 1×complete ULTRA cocktail inhibitor (Thermo ScientificTM, cat #78443) was then added to the washed cells. Cells were incubated with lysis buffer for 1 hour at 4° C., and then stored at -80° C. Enzyme-linked immunosorbent assays (ELISA) were performed to measure phosphorylated ERBB2 levels. […] The next day, plates were washed with PBS+0.05% Tween20 (PBST). 150 μl of 5% BSA blocking solution was added for 1 hour at room temperature, with shaking. Plates were washed with PBST. Cell lysates were thawed and 100 μl of lysate was added to the ELISA plate. The plates were incubated for 2 hours at room temperature, with shaking. ELISA plates were then washed with PBST and 100 μl of an HRP-labeled detection antibody that binds phosphorylated tyrosine (R&D Systems, cat #841913) was added to each well. Plates were incubated for 1 hour at room temperature, with shaking. Plates were then washed with PBST, and 100 μl TMB substrate solution (R&D Systems, cat #DY999) was added. Plate were incubated in the dark for 20 minutes at room temperature. 50 μl of Stop solution (R&D Systems, cat #DY994) (50 μl) was added to each well and mixed. […] The remaining kinase activity by calculated using the following formula: % Relative activity=100×([…]). The low and high control values (“LC” and “HC”) were generated from lysate from wells without cells or with cells treated with 0.1% DMSO, respectively.
Chain of phosphorylated ERBB2 (pERBB2) (P04626 23-1255): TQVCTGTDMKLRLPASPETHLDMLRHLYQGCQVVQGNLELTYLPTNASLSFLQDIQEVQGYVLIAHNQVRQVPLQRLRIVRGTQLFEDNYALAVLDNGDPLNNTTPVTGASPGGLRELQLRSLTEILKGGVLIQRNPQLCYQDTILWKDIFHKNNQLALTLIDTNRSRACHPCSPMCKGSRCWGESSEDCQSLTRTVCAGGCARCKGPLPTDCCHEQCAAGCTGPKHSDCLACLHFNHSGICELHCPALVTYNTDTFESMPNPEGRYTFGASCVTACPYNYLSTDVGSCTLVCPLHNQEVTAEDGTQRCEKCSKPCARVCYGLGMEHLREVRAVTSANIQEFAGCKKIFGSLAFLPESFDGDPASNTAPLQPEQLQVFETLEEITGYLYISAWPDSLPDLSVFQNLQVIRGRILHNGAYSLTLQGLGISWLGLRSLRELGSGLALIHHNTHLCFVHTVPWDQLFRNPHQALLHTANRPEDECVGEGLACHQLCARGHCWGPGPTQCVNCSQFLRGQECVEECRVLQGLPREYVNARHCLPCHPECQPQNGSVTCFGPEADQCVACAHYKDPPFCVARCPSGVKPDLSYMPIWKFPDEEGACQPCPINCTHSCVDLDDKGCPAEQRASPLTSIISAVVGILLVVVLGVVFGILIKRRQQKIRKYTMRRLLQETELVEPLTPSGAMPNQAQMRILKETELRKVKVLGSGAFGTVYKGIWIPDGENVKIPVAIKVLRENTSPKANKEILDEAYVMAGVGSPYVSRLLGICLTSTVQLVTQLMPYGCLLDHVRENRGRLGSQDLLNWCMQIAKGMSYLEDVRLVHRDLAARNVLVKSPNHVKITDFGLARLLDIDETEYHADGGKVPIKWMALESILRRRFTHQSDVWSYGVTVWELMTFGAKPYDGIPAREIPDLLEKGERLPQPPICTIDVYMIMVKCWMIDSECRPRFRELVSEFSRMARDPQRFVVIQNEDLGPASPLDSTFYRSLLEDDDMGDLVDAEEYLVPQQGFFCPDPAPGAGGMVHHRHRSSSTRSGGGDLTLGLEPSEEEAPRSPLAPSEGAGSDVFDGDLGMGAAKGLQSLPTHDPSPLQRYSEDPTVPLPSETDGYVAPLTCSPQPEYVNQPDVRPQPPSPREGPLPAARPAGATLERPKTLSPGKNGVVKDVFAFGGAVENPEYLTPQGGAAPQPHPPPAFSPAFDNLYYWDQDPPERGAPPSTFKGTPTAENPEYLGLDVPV

Chain of phosphorylated EGFR (pEGFR) (P00533 25-1210): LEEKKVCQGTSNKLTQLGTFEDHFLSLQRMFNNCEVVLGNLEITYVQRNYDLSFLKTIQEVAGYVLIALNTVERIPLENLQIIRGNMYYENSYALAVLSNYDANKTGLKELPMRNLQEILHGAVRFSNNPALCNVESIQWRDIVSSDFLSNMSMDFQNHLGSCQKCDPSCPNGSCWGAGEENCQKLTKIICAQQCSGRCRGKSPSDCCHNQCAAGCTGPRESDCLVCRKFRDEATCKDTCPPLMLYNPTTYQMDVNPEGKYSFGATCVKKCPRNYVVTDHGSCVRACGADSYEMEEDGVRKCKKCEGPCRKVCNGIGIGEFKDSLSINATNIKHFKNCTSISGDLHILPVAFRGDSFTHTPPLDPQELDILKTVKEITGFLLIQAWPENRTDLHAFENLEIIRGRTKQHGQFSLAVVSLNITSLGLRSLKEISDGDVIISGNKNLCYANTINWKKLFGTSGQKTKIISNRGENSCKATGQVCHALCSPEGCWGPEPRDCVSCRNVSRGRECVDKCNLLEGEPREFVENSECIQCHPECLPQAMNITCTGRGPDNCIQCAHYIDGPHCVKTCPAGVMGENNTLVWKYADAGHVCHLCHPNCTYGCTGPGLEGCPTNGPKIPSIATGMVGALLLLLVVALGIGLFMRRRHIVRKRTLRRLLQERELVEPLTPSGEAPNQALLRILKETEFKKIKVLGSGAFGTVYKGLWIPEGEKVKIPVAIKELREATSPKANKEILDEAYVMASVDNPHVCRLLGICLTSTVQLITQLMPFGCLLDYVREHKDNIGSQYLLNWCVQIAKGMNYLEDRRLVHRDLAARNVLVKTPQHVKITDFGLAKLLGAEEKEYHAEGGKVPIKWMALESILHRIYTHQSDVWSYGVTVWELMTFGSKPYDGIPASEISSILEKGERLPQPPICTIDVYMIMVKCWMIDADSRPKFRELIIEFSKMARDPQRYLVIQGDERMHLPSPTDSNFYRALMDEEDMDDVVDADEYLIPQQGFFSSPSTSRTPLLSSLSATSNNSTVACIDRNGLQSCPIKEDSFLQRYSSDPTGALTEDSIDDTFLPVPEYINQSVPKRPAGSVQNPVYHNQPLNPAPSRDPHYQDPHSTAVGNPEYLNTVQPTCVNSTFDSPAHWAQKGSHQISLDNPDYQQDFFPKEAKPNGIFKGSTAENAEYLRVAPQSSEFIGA

For orientation: IC50 means the concentration needed to halve the response being measured. Take `Cc1cc(Nc2ncnc3cc4c(nc23)N2CCN(C(=O)/C=C/CN(C)C)C(CO4)C2)ccc1Oc1ccn2ncnc2c1` (stereo in doubt) [Compound 15, (E)-1-((10R)-4-((4-([1,2,4]triazolo[1,5-a]pyridin-7-yloxy)-3-methylphenyl)amino)-7,8,10,11-tetrahydro-9H-6,10-methanopyrimido[4′,5′:5,6]pyrido[3,2-b][1,4,7]oxadiazonin-9-yl)-4-(dimethylamino)but-2-en-1-one]: the results for the IC50 in experiment [1] and in experiment [2] were more than 10000 nM and 343 nM, respectively.

As to `[2H]C([2H])(/C=C/C(=O)N1CCN2CC1COc1cc3ncnc(Nc4cc(C)c(Oc5ccn6ncnc6c5)cc4F)c3nc12)N(C)C` (stereo in doubt) [Compound 58, (E)-1-((10S)-4-((4-([1,2,4]triazolo[1,5-a]pyridin-7-yloxy)-2-fluoro-5-methylphenyl)amino)-7,8,10,11-tetrahydro-9H-6,10-methanopyrimido[4′,5′:5,6]pyrido[3,2-b][1,4,7]oxadiazonin-9-yl)-4-(dimethylamino)but-2-en-1-one-4,4-d2], the results for the IC50 in experiment [1] and in experiment [2] were 869 nM and 5.5 nM, respectively.

Consider `Cc1c(Oc2ccn3ncnc3c2)ccc(Nc2ncnc3cc4c(nc23)N2CCN(C(=O)/C=C/CN(C)C)C(CO4)C2)c1F` (stereo in doubt) [Compound 35, (E)-1-((10S)-4-((4-([1,2,4]triazolo[1,5-a]pyridin-7-yloxy)-2-fluoro-3-methylphenyl)amino)-7,8,10,11-tetrahydro-9H-6,10-methanopyrimido[4′,5′:5,6]pyrido[3,2-b][1,4,7]oxadiazonin-9-yl)-4-(dimethylamino)but-2-en-1-one], for which the half-maximal inhibitory concentration (IC50) in experiment [1] came to 309 nM; in experiment [2] it was 5.48 nM. On the same counts, the results for `Cc1cc(Nc2ncnc3cc4c(nc23)N2CCN(C(=O)/C=C/CN(C)C)C(CCO4)C2)ccc1Oc1ccn2ncnc2c1` (centres unmarked) [Compound 52, (E)-1-(4-((4-([1,2,4]triazolo[1,5-a]pyridin-7-yloxy)-3-methylphenyl)amino)-7,8,11,12-tetrahydro-6,10-methanopyrimido[4′,5′:5,6]pyrido[3,2-b][1,4,7]oxadiazecin-9 (10H)-yl)-4-(dimethylamino)but-2-en-1-one] are more than 10000 nM and 635 nM. On the same counts, the results for `CNC/C=C/C(=O)N1CCN2CC1COc1cc3ncnc(Nc4cc(C)c(Oc5ccn6ncnc6c5)cc4F)c3nc12` (stereo in doubt) [Compound 49, (E)-1-((10S)-4-((4-([1,2,4]triazolo[1,5-a]pyridin-7-yloxy)-2-fluoro-5-methylphenyl)amino)-7,8,10,11-tetrahydro-9H-6,10-methanopyrimido[4′,5′:5,6]pyrido[3,2-b][1,4,7]oxadiazonin-9-yl)-4-(methylamino)but-2-en-1-one] are 2650 nM and 31.5 nM. On the same counts, the results for `Cc1cc(Nc2ncnc3cc4c(nc23)N2CCN(C(=O)/C=C/[C@H](C)N(C)C)C(CO4)C2)c(F)cc1Oc1ccn2ncnc2c1` (stereo in doubt) [Compound 47, (4S,E)-1-((10S)-4-((4-([1,2,4]triazolo[1,5-a]pyridin-7-yloxy)-2-fluoro-5-methylphenyl)amino)-7,8,10,11-tetrahydro-9H-6,10-methanopyrimido[4′,5′:5,6]pyrido[3,2-b][1,4,7]oxadiazonin-9-yl)-4-(dimethylamino)pent-2-en-1-one] are more than 10000 nM and 29.2 nM. Consider `CN(C)C/C=C/C(=O)N1CCN2C[C@H]1COc1cc3ncnc(Nc4cc(F)c(Oc5ccn6ncnc6c5)cc4F)c3nc12` [Compound 48, (E)-1-((10S)-4-((4-([1,2,4]triazolo[1,5-a]pyridin-7-yloxy)-2,5-difluorophenyl)amino)-7,8,10,11-tetrahydro-9H-6,10-methanopyrimido[4′,5′:5,6]pyrido[3,2-b][1,4,7]oxadiazonin-9-yl)-4-(dimethylamino)but-2-en-1-one], for which the IC50 in experiment [1] was 3300 nM; in experiment [2], 10.8 nM. Regarding `Cc1cc(Nc2ncnc3cc4c(nc23)N2CCN(C(=O)/C=C/CN(C)C)C(CO4)C2)ccc1Oc1ccn2ncnc2c1` (stereo in doubt) [Compound 10, (E)-1-((10S)-4-((4-([1,2,4]triazolo[1,5-a]pyridin-7-yloxy)-3-methylphenyl)amino)-7,8,10,11-tetrahydro-9H-6,10-methanopyrimido[4′,5′:5,6]pyrido[3,2-b][1,4,7]oxadiazonin-9-yl)-4-(dimethylamino)but-2-en-1-one], the values for the half-maximal inhibitory concentration (IC50) in experiment [1] and in experiment [2] were 3040 nM and 5.2 nM, respectively. `Cc1cc(Nc2ncnc3ccc(NC4=NC(C)(C)CO4)cc23)ccc1Oc1ccn2ncnc2c1` [Tucatinib, tucatinib, reference compound]: the IC50 in experiment [2] came to 12 nM.

Turning to `Cc1cc(Nc2ncnc3cc4c(nc23)N2CCN(C(=O)/C=C/CN(C)C)C(CO4)C2)ccc1Oc1cccnc1` (stereo in doubt) [Compound 25, (E)-4-(dimethylamino)-1-((10S)-4-((3-methyl-4-(pyridin-3-yloxy)phenyl)amino)-7,8,10,11-tetrahydro-9H-6,10-methanopyrimido[4′,5′:5,6]pyrido[3,2-b][1,4,7]oxadiazonin-9-yl)but-2-en-1-one], the IC50 in experiment [1] was 338 nM; in experiment [2], 5.54 nM. As for `[2H]C([2H])([2H])N(C([2H])([2H])[2H])C([2H])([2H])/C=C/C(=O)N1CCN2CC1COc1cc3ncnc(Nc4cc(C)c(Oc5ccn6ncnc6c5)cc4F)c3nc12` (stereo in doubt) [Compound 59, (E)-1-((10S)-4-((4-([1,2,4]triazolo[1,5-a]pyridin-7-yloxy)-2-fluoro-5-methylphenyl)amino)-7,8,10,11-tetrahydro-9H-6,10-methanopyrimido[4′,5′:5,6]pyrido[3,2-b][1,4,7]oxadiazonin-9-yl)-4-(bis(methyl-d3)amino)but-2-en-1-one-4,4-d2], the IC50 amounted to 1380 nM in experiment [1] and 9 nM in experiment [2]. As to `Cc1cc(Nc2ncnc3cc4c(nc23)N2CCN(C(=O)/C=C/CN(C)C)C(CO4)C2)ccc1Oc1ccc2c(c1)ncn2C` (stereo in doubt) [Compound 6, (E)-4-(dimethylamino)-1-((10S)-4-((3-methyl-4-((1-methyl-1H-benzo[d]imidazol-5-yl)oxy)phenyl)amino)-7,8,10,11-tetrahydro-9H-6,10-methanopyrimido[4′,5′:5,6]pyrido[3,2-b][1,4,7]oxadiazonin-9-yl)but-2-en-1-one], the IC50 in experiment [1] was 2190 nM; in experiment [2], 34.2 nM. On the same counts, the results for `CN(C)C/C=C/C(=O)N1CCN2CC1COc1cc3ncnc(Nc4ccc(Oc5ccn6ncnc6c5)c(Cl)c4)c3nc12` (stereo in doubt) [Compound 32, (E)-1-((10S)-4-((4-([1,2,4]triazolo[1,5-a]pyridin-7-yloxy)-3-chlorophenyl)amino)-7,8,10,11-tetrahydro-9H-6,10-methanopyrimido[4′,5′:5,6]pyrido[3,2-b][1,4,7]oxadiazonin-9-yl)-4-(dimethylamino)but-2-en-1-one] are 920 nM and 8.41 nM. Take `C=CC(=O)N1CCN2C[C@@H]1COc1cc3ncnc(Nc4ccc(Cc5ccn6ncnc6c5)c(C)c4)c3nc12` [Compound 19, 1-((10R)-4-((4-([1,2,4]triazolo[1,5-a]pyridin-7-ylmethyl)-3-methylphenyl)amino)-7,8,10,11-tetrahydro-9H-6,10-methanopyrimido[4′,5′:5,6]pyrido[3,2-b][1,4,7]oxadiazonin-9-yl)prop-2-en-1-one]: the IC50 in experiment [2] came out at 1930 nM.
